Molecules are shown by their SMILES. Structures can show the parent of a compound that is named as a salt.

One may read the melting point as the temperature of the solid-liquid transition.

In turn, `COCCN1CCN(c2cccc(CN(C)c3nc(=O)c4c(OC)c(OC)c(OC)cc4[nH]3)c2)C1=O` [Example 266, 5,6,7-Trimethoxy-2-({3-[3-(2-methoxy-ethyl)-2-oxo-imidazllidin-1-yl]-benzyl}-methyl-amino)-1H-quinazolin-4-one] yielded a melting point of 199.5 to 202.1 °C. Next, `COc1cc2[nH]c(N(C)Cc3cccc(Nc4nc(C)cc(Cl)n4)c3)nc(=O)c2c(OC)c1OC` [Example 219, 2-{[3-(4-Chloro-6-methyl-pyrimidin-2-ylamino)-benzyl]-methyl-amino}-5,6,7-trimethoxy-1H-quinazolin-4-one]: 191.3 to 192.8 °C; `COc1cc2[nH]c(N(C)C(C)c3cccc(NCCNC(C)=O)c3)nc(=O)c2c(C)c1OC` (stereo not shown) [Example 191, N-[2-(3-{1-[(6,7-Dimethoxy-5-methyl-4-oxo-1,4-dihydro-quinazolin-2-yl)-methyl-amino]-ethyl}-phenylamino)-ethyl]-acetamide]: 220.6 to 222.4 °C; `COCCN(C)C(C)c1cccc(CN(C)c2nc(=O)c3c(C)c(OC)c(OC)cc3[nH]2)c1` (stereo not shown) [Example 54, 6,7-Dimedthoxy-2-[(3-{1-[(2-methoxy-ethyl)-methyl-amino]-ethyl}-benzyl)-methyl-amino]-5-methyl-1H-quinazolin-4-one]: 114.5 to 116.9 °C. The molecule `COc1cc2[nH]c(N(C)Cc3cccc(Nc4ncccn4)c3)nc(=O)c2c(OC)c1OC` [Example 213, 5,6,7-Trimethoxy-2-{methyl-[3-(pyrimidin-2-ylamino)-benzyl]-amino}-1H-quinaozlin-4-one] gave a melting point of 190.3 to 191.1 °C. Next, `COc1cc2[nH]c(N(C)Cc3cccc(N4CCC(O)C4=O)c3)nc(=O)c2c(OC)c1OC` (stereo not shown) (as salt: HCl) [Example 22, 2-{[3-(3-Hydroxy-2-oxo-pyrrolidin-1-yl)-benzyl]-methyl-amino}-5,6,7-trimethoxy-1H-quinazolin-4-one]: 172.9 to 175.9 °C; `CONC(=O)Nc1cccc(CN(C)c2nc(=O)c3c(OC)c(OC)c(OC)cc3[nH]2)c1` [Example 181, N-Methoxy-N′-(3-{[methyl-(5,6,7-trimethoxy-4-oxo-1,4-dihydro-quinazolin-2-yl)-amino]-methyl-}-phenyl)-urea]: 165 to 167 °C. Next, `CCN(C)Cc1cccc(CN(C)c2nc(=O)c3c(C)c(OC)c(OC)cc3[nH]2)c1` [Example 71, 2-({3-[(Ethyl-methyl-amino)-methyl]-benzyl}-methyl-amino)-6,7-dimethoxy-5-methyl-1H-quinazolin-4-one]: 146.7 to 150.8 °C. The result for `COc1cc2[nH]c(N(C)Cc3cccc(/N=C(\C)N(C)C)c3)nc(=O)c2c(C)c1OC` [Example 167, N′-(3-{[(6,7-Dimethoxy-5-methyl-4-oxo-1,4-dihydro-quinazolin-2-yl)-methyl-amino]-methyl}-phenyl)-N,N-dimethyl-acetamide] reads 174.4 to 174.8 °C; that for `COc1cc2[nH]c(N(C)Cc3cccc(NS(=O)(=O)N(C)C)c3)nc(=O)c2c(OC)c1OC` [Example 171, N,N-Dimethyl-N′-(3-{[methyl-(5,6,7-trimethoxy-4-oxo-1,4-dihydro-quinazolin-2-yl)-amino]-methyl}-phenyl)-sulfamide], 176.5 to 179.7 °C.

Take `COCCNCc1ccc(CN(C)c2nc(=O)c3c(C)c(OC)c(OC)cc3[nH]2)cc1` (as salt: HCl) [Example 36, 6,7-Dimethoxy-2-({4-[(2-methoxy-ethylamino)-methyl]-benzyl}-methyl-amino)-5-methyl-1H-quinazolin-4-one]: the melting point fell in the range of 265 to 268 °C.

In the case of `COc1cc2[nH]c(N(C)Cc3cccc(NC(C)=N)c3)nc(=O)c2c(C)c1OC` [Example G-26, N-(3-{[(6,7-Dimethoxy-5-methyl-4-oxo-1,4-dihydro-quinazolin-2-yl)-methyl-amino]-methyl}-phenyl)-acetamidine], the melting point was 155 to 158 °C. Molecule `COc1cc2[nH]c(N(C)Cc3ccc(CN(C)S(C)(=O)=O)cc3)nc(=O)c2c(C)c1OC` [Example 10, N-(4-{[(6,7-Dimethoxy-5-methyl-4-oxo-1,4-dihydro-quinazolin-2-yl)-methyl-amino]-methyl}-benzyl)-N-methyl-methanesulfonamide] had a melting point of 238 to 240 °C. The result for `COc1cc2nc(N(C)Cc3cccc(C4=NCCN4C)c3)[nH]c(=O)c2c(C)c1OC` [Example H-2, 6,7-Dimethoxy-5-methyl-2-{methyl-[3-(1-methyl-4,5-dihydro-1H-imidazol-2-yl)-benzyl]-amino}-1H-quinazolin-4-one] reads 145 to 148 °C; that for `COC(=O)Nc1cccc(CN(C)c2nc(=O)c3c(OC)c(OC)c(OC)cc3[nH]2)c1` [Example 177, (3-{[Methyl-(5,6,7-trimethoxy-4-oxo-1,4-dihydro-quinazolin-2-yl)-amino]-methyl}-phenyl)-carbamic acid methylester], 230.9 to 232.1 °C. Next, `COc1cc2[nH]c(NCc3cccc(/N=C(\C)N(C)C)c3)nc(=O)c2c(C)c1OC` [Example 72, N′-{3-[(6,7-Dimethoxy-5-methyl-4-oxo-1,4-dihydro-quinazolin-2-ylamino)-methyl]-phenyl}-N,N-dimethyl-acetamide]: 173 to 175 °C. Next, `COc1cc2[nH]c(N(C)Cc3cc(N(C)C4=NCCC4)ccc3F)nc(=O)c2c(O)c1OC` [Example 211, 2-({-[(4,5-Dihydro-3H-pyrrol-2-yl)-methyl-amino]-2-fluoro-benzyl}-methylamino)-5-hydroxy-6,7-dimethoxy-1H-quinazolin-4-one]: 264.9 to 267 °C; `COc1cc2[nH]c(N(C)Cc3cccc(S(=O)(=O)N(C)C)c3)nc(=O)c2c(OC)c1OC` [Example 130]: 199.9 to 204 °C. On to `COc1cc2[nH]c(N(C)Cc3cccc(N(C)S(=O)(=O)N(C)C)c3)nc(=O)c2c(C)c1OC` [Example 170, N-(3-{[(6,7-dimethoxy-5-methyl-4-oxo-1,4-dihydro-quinazolin-2-yl)-methyl-amino]-methyl}-phenyl)-N,N′,N′-trimethylsulfamide], for which the melting point lay in the range of 160 to 161.7 °C.

`COc1cc2[nH]c(N(C)Cc3cccc(N4C(=O)CN(C)C4=O)c3)nc(=O)c2c(C)c1OC` [Example 60, 3-(3-{[(6,7-Dimethoxy-5-methyl-4-oxo-1,4-dihydro-quinazolin-2-yl)-methyl-amino]-methyl-}-phenyl)-1-methyl-imidazolidine-2,4-dione] gave a melting point of 209.3 to 210.8 °C. The result for `COc1cc2[nH]c(N(C)Cc3cccc(/N=C(/C)N(C)C)c3)nc(=O)c2c(OC)c1OC` [Example 197, N,N-Dimethyl-N′-(3-{[methyl-(5,6,7-trimethoxy-4-oxo-1,4-dihydro-quinazolin-2-yl)-amino]-methyl}-phenyl)acetamidine] reads 199 to 201 °C; that for `COc1cc2[nH]c(N(C)Cc3cccc(-c4nccn4C)c3)nc(=O)c2c(C)c1OC` [Example 249, 6,7-Dimethoxy-5-methyl-2-{methyl-[3-(1-methyl-`1H-imidazol-2-yl)-benzyl]-amino}-1H-quinazolin-4-one], 179 to 182.1 °C.

The values are drawn from patent publication US7244738B2, “Arylamine-substituted quinazolinone compounds useful as alpha 1A/B adrenergic receptor antagonists” (Roche Palo Alto LLC, priority 2003, dated 2007).
